Columns and labels:
Assay type in all cases: in vivo
[1] = test system: Housefly [Musca domestica]; experiment: Housefly contact mortality in dishes (HF), 48 hours; settings: μg of test compound per 25 female flies
In short: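 LC50, as μg compound per 25 female flies, comes from dosage-mortality curves with doses from 100 μg downward. Residues were made by evaporating acetone plus 0.01% peanut oil in dishes, onto which 1-2-day-old females were caged; deaths were counted after 48 hours.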

[2] = test system: Tobacco Budworm [Heliothis virescens (Fabricius)] larvae; experiment: Tobacco budworm larvae, contact (TBW-C), 5 days; settings: percent in solution, second-instar larvae
Method: The compounds in Tables 1 and 2 above were tested for insecticidal activity using the following testing procedures. LC50 values, based on the results of these tests and calculated according to dosage-mortality curves, are expressed in Table 3.
Tobacco Budworm [Heliothis virescens (Fabricius)]:
(a) Contact: Test compounds were diluted in a 50-50 acetone-water solution. Cotton (Gossypium sp.) cotyledons were immersed in the test solutions for 2-3 seconds and placed on a wire screen to dry. The dried leaves were placed in petri dishes containing a moistened piece of filter paper and infested with 5 second-instar tobacco budworm larvae. The dishes were placed in a high humidity chamber for 5 days, and percent mortality of the larvae recorded. Test concentrations ranged from 0.1% downward. The LC-50 values are expressed below in Table 3 under the heading "TBW-C" in terms of percent of the test compound in the solution.

[3] = test system: Tobacco Budworm [Heliothis virescens (Fabricius)] eggs; experiment: Tobacco budworm eggs (TBW-E); settings: percent in solution; 2-day old eggs
In short: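 Paper-towel patches of 2-day-old eggs dipped in acetone solutions of compound (0.1% downward), held on larval rearing medium at 78° F. Mortality scored once all control eggs had hatched and larvae were feeding; LC50 from dosage-mortality curves, expressed as percent compound in solution.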

[4] = test system: Cabbage Looper [Trichoplusia ni (Hubner)]; experiment: Cabbage looper leaf dip (CL), 3-5 days; settings: percent in solution, second-instar larvae
In short: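 Squash cotyledons dipped 2-3 s in compound in 50-50 acetone-water, dried, then infested with 5 second-instar larvae and held at high humidity. Mortality scored after 3-5 days at concentrations from 0.1% downward. LC50 from dosage-mortality curves, expressed as percent compound in solution.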

[5] = test system: Aster Leafhopper [Macrosteles fascifrens (Stal)]; experiment: Aster leafhopper on dipped oat seedlings (LH), 48 hours; settings: percent in solution, adults/nymphs
In short: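 LC50 values, given as percent of test compound in the dip solution, were derived from dosage-mortality curves over concentrations from 0.05% downward. Mortality was counted 48 hours after ten leafhopper adults/nymphs were enclosed on treated seedlings. The seedlings were oats, about 10 cm tall, briefly dipped in 50-50 acetone-water.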

[6] = test system: Maize weevil [Sitophilus zeamais (Motschulsky)]; experiment: Maize weevil on dipped corn seeds (MW), 48 hours; settings: percent in solution, adult weevils
In short: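 LC50, given as percent of compound in dipping solution, comes from dosage-mortality curves over concentrations descending from 0.01%. Four corn seeds soaked 2-3 s in 50:50 acetone:water solution were dried and held with 10 adult weevils, about 25° C, mortality read after 48 h.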

[7] = test system: Black Bean Aphid [Aphis fabae (Scop.)]; experiment: Black bean aphid spray test on nasturtium (BBA), 48 hours; settings: percent of test compound in sprayed solution
In short: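 LC50, given as percent test compound in the sprayed liquid, was calculated from dosage-mortality curves using concentrations from 0.05% downward. Sprays in 50:50 acetone-water went to runoff on ~5 cm nasturtiums carrying 25-50 aphids of mixed ages, one day after infestation. Deaths were counted 48 h later under greenhouse conditions.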

Row | SMILES | LC50 HF [1] | LC50 TBW C (contact) [2] | LC50 TBW E (eggs) [3] | LC50 CL [4] | LC50 LH [5] | LC50 MW [6] | LC50 BBA [7]
1 | CC(C)C(=Nc1ccc(F)c(C(F)(F)F)c1)OCc1ccc(F)c(Oc2ccc(Cl)cc2)c1 [Compound 297] | 23 µg | 0.00075% | 0.025% | 0.00027% | 0.0001% | 0.0071% | –
2 | CCC(C)C(=Nc1ccc(F)c(Cl)c1)OCc1cccc(Oc2ccc(F)cc2)c1 (centres unmarked) [Compound 210] | 35 µg | 0.0015% | 0.045% | 0.00028% | – | > 0.01% | 0.01%
3 | CC(C)C(=Nc1cccc(C(F)(F)F)c1)OCc1ccc(F)c(Oc2ccc(Cl)cc2)c1 [Compound 266] | 10 µg | 0.0007% | 0.06% | 0.00016% | – | – | > 0.05%
4 | Cc1c(F)cccc1N=C(OCc1cccc(Oc2ccccc2)c1)C(C)C [Compound 73] | 25 µg | 0.005% | 0.025% | 0.004% | – | – | 0.003%
5 | CC(C)C(=Nc1ccc2c(c1)OC(C)(C)O2)OCc1cccc(Oc2ccc(F)cc2)c1 [Compound 219] | 50 µg | 0.004% | 0.027% | 0.00025% | – | > 0.01% | 0.003%
6 | COc1ccccc1N=C(OCc1cccc(Oc2ccccc2)c1)C(C)C [Compound 145] | > 100 µg | 0.05% | > 0.1% | 0.05% | > 0.05% | – | > 0.05%
7 | CC(C)(C)c1ccc(N=C(OCc2cccc(Oc3ccccc3)c2)C(Cl)Cl)cc1 [Compound 140] | > 100 µg | > 0.1% | > 0.1% | < 0.1% | – | – | 0.05%
8 | ClC(Cl)C(=Nc1ccccc1)OCc1cccc(Oc2ccccc2)c1 [Compound 41] | 4.5 µg | 0.0035% | 0.04% | 0.015% | – | – | 0.001%
9 | Fc1ccc(N=C(OCc2cccc(Oc3ccccc3)c2)C(Cl)Cl)cc1 [Compound 44] | 3 µg | < 0.1% | 0.06% | – | – | – | 0.0006%
10 | COc1ccc(N=C(OCc2cccc(Oc3ccccc3)c2)C(C)C)cc1Cl [Compound 95] | 10 µg | 0.004% | 0.025% | 0.0025% | – | – | 0.001%
11 | CC(C)C(=Nc1cc(F)cc(F)c1)OCc1cccc(Oc2ccc(F)cc2)c1 [Compound 199] | 8 µg | 0.003% | > 0.1% | 0.0006% | – | > 0.01% | –
12 | CC(C)C(=Nc1ccc(Cl)c(Cl)c1)OCc1cccc(Oc2ccc(F)cc2)c1 [Compound 37] | 21 µg | 0.0005% | 0.014% | 0.0004% | 0.002% | 0.009% | –
13 | CC(=O)c1ccc(N=C(OCc2cccc(Oc3ccccc3)c2)C(C)C)cc1 [Compound 147] | 10 µg | 0.0075% | > 0.1% | 0.01% | – | – | 0.03%
14 | COc1ccc(N=C(OCc2cccc(Oc3ccccc3)c2)C(C)C)c(OC)c1 [Compound 146] | 40 µg | 0.025% | > 0.1% | 0.017% | – | – | 0.05%
15 | Cc1cc(Cl)ccc1N=C(OCc1cccc(Oc2ccccc2)c1)C(C)C [Compound 96] | 35 µg | 0.0025% | 0.025% | 0.003% | – | – | 0.002%
16 | CC(C)C(=Nc1ccc(F)c(F)c1)OCc1cccc(Oc2ccc(F)cc2)c1 [Compound 60, N-(3,4-Difluorophenyl)-O-(4'-fluoro-3-phenoxybenzyl)isobutyrylimidate] | 8 µg | 0.0009% | 0.017% | 0.001% | 0.002% | 0.0075% | –
17 | CC(C)C(=Nc1ccc(F)c(Cl)c1)OCc1cccc(Oc2ccc(C#N)cc2)c1 [Compound 196] | 17 µg | 0.001% | > 0.1% | 0.0006% | > 0.05% | > 0.01% | –
18 | Cc1ccc(N=C(OCc2cccc(Oc3ccccc3)c2)C(C)C)cc1F [Compound 75] | 5 µg | 0.0075% | 0.01% | 0.0025% | 0.0008% | – | 0.0006%
19 | Cc1ccc(F)cc1N=C(OCc1cccc(Oc2ccccc2)c1)C(C)C [Compound 74] | 25 µg | 0.0025% | 0.025% | 0.005% | – | – | 0.001%
20 | CC(C)(C)C(=Nc1ccc(F)c(Cl)c1)OCc1cccc(Oc2ccc(F)cc2)c1 [Compound 204] | > 100 µg | 0.004% | > 0.1% | 0.0023% | – | > 0.01% | –
21 | CCOc1ccc(N=C(OCc2cccc(Oc3ccccc3)c2)C(Cl)Cl)cc1 [Compound 138] | 19 µg | 0.015% | 0.08% | 0.005% | – | > 0.01% | 0.003%
22 | C=C(C)C(=Nc1ccc(C(F)(F)F)cc1)OCc1ccc(F)c(Oc2ccc(Cl)cc2)c1 [Compound 432] | < 100 µg | < 0.1% | 0.032% | 0.0012% | – | > 0.01% | 0.001%
23 | CC(C)C(=Nc1c(F)c(F)c(F)c(F)c1F)OCc1cccc(Oc2ccccc2)c1 [Compound 51] | 25 µg | 0.0025% | 0.067% | 0.001% | 0.001% | – | 0.01%
